The values that follow come from US8541410B2, “Sulfur substituted sulfonylaminocarboxylic acid N-arylamides, their preparation, their use and pharmaceutical preparations comprising them” (Sanofi-aventis Deutschland GmbH, priority 1998, dated 2013).

The IC50 is the concentration that gives 50% inhibition. A high value points to weaker potency.

Structures are written as SMILES.

One assay deals with rat aorta rings. The assay can be described thus: Relaxation of rat aorta (phenylephrine-precontracted rings). The note with it: 50% relaxation of phenylephrine (1 μM) contraction. It counts as cell-based, rat (Wistar-Kyoto). The text has this:
For this test, normotensive male Wistar-Kyoto rats were sacrificed by a blow to the neck. The abdominal cavity and the thorax were opened by a medium stemotomy. The descending aorta was subsequently removed, freed of connective tissue and divided into 8 rings of a length of approximately 4 mm. The tip of a pair of tweezers was introduced into the lumen of 4 of the 8 rings. The endothelium was removed by carefully rolling the rings over the tip of the pair of tweezers. All 8 aorta rings (4 with endothelium and 4 without endothelium) were subsequently suspended in an organ bath (Schuler-Organbad; Hugo Sachs Elektronik) at a constant temperature of 37° C. for the isometric determination of the contractile tone. For 30 minutes, the rings were calibrated at a resting tension of 0.1 g in carbonated (95% O2; 5% CO2) Krebs-Henseleit solution (composition: Na^+ 144.0 mM; K^+ 5.9 mM; Cl^− 126.9 mM; Ca^2+ 1.6 mM; […] 1.2 mM; H2PO4^− 1.2 mM; SO4^2− 1.2 mM; HCO3^− 25.0 mM; D-glucose 11.1 mM) of pH 7.4. Additionally, 1 μmol/l of indomethacin were added to the Krebs-Henseleit solution to inhibit prostaglandin biosynthesis. The rings were subsequently precontracted by addition of phenylephrine (concentration in the solution: 1 μM) and the endothelium-dependent relaxation or the functional loss of the endothelium was tested by addition of acetylcholine (concentration in the solution: 1 μM). After a 30-minute washing period, the rings were then again precontracted by addition of phenylephrine (1 μM), and the relaxing action of the test substances of the formula I was determined by administration of cumulative doses of the latter. The data were evaluated by standard methods. Given is the concentration IC50 by which contraction is inhibited by 50% (50% relaxation).

The target in assay [1] is T1, soluble guanylate cyclase (sGC) (Bos taurus, UniProt P16068).
T1 construct: The sGC which was employed had been isolated from bovine lung; from tissue; host or cells: bovine lung
T1 sequence (P16068 1-619): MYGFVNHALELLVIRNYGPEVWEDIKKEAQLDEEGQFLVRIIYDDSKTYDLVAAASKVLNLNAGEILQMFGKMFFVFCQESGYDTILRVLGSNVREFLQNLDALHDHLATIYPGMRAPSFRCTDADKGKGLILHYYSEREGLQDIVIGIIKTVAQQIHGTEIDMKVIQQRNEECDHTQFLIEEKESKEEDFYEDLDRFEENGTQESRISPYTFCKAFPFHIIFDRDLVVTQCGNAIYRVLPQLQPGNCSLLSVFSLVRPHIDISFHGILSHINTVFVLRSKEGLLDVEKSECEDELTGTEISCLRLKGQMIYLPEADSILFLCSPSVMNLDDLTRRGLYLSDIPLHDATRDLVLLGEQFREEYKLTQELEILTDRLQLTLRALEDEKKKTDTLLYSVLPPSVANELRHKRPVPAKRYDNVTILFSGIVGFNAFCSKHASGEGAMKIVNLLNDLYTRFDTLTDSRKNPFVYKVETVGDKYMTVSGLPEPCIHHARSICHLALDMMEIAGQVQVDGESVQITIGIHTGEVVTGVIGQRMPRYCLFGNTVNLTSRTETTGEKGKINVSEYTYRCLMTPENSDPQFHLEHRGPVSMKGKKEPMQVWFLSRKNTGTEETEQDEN
T1 sequence (P19687 1-691 partner): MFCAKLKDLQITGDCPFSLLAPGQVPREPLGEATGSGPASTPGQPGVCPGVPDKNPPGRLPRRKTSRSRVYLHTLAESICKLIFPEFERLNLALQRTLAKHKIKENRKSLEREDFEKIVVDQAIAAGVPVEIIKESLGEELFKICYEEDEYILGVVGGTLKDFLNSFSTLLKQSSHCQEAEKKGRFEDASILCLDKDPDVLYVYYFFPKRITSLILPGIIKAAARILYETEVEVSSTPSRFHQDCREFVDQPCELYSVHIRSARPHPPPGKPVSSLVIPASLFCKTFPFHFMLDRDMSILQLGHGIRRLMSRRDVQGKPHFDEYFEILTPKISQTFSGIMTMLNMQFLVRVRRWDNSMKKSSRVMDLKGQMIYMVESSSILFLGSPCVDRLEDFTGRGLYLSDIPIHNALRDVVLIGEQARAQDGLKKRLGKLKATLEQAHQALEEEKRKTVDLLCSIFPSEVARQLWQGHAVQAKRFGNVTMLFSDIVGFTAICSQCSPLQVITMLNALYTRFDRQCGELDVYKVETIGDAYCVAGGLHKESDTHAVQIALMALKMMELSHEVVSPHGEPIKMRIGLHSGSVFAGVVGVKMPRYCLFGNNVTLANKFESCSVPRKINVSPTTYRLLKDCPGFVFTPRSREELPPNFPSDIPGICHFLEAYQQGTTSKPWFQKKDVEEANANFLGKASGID
The assay can be described thus: Activation of the soluble guanylate cyclase (cGMP enzyme immunoassay). The note with it: n-fold stimulation of basal enzyme activity. It counts as biochemical, bovine. On the procedure:
The activation of the soluble guanylate cyclase (sGC) which catalyzes the conversion of guanosine triphosphate (GTP) into cyclic guanosine monophosphate (cGMP) and pyrophosphate, by the compounds according to the invention was quantified with the aid of an enzyme immunoassay (EIA) from Amersham. For this purpose the substances to be tested were initially incubated with sGC in microtiter plates, and the amount of the cGMP formed was then determined.
The sGC which was employed had been isolated from bovine lung (see Methods in Enzymology, Volume 195, p. 377). The test solutions (100 μl per well) contained 50 mM triethanolamine (TEA) buffer (pH 7.5), 3 mM MgCl2, 3 mM reduced glutathione (GSH), 0.1 mM GTP, 1 mM 3-isobutyl-1-methylxanthine (IBMX), suitably diluted enzyme solution and the substance to be tested or, in the control experiments, the solvent. The substances to be tested were dissolved in dimethyl sulfoxide (DMSO) and the solution was diluted with DMSO/water, so that the final concentration (c) of the substance to be tested in the test solution had the value indicated in the table. The DMSO concentration in the test solution was 5% (v/v). The reaction was initiated by addition of the sGC. The reaction mixture was incubated at 37° C. for 15 to 20 minutes and then stopped by ice-cooling and addition of the stop reagent (50 mM EDTA, pH 8.0). An aliquot of 50 μl was taken and used for determining the cGMP content using the acetylation protocol of the Amersham cGMP-EIA kit. The absorption of the samples was measured at 450 nm (reference wavelength 620 nm) in a microtiter plate reader. The cGMP concentration was determined using a standard curve which was obtained under the same test conditions. The activation of sGC by a test substance is given as the n-fold stimulation of the basal enzyme activity which was found in the control experiments (using solvent instead of test substance) (calculated using the formula n-fold stimulation=[cGMP]test substance/[cGMP]control).

On to `COc1cc(NS(=O)(=O)c2ccc(Cl)cc2)c(C(=O)Nc2ccc(S(=O)(=O)N3CCSCC3)cc2)cc1OC` [Example 59, 2-(4-Chloro-phenylsulfonylamino)-4,5-dimethoxy-N-(4-(thiomorpholine-4-sulfonyl)-phenyl)-benzamide], for which the IC50 in the assay with rat aorta rings (ring with endothelium) came to 0.52 µM; in the assay on rat aorta rings (ring without endothelium) it was 0.27 µM. The n-fold stimulation in assay [1] (concentration c 50 μM) came to 34.8.
Taken in the same sequence, the figures for `O=C(Nc1ccc(S(=O)(=O)N2CCOCC2)cc1)c1cc(Cl)ccc1NS(=O)(=O)c1ccc(Cl)s1` [Example 129, 5-Chloro-2-(5-chloro-thiophene-2-sulfonylamino)-N-(4-(morpholine-4-sulfonyl)-phenyl)-benzamide] were 0.46 µM, 0.31 µM and 8.6.
For the compound `COc1cc(NS(=O)(=O)c2c(C)noc2C)c(C(=O)Nc2ccc(S(=O)(=O)N(C)Cc3cccnc3)cc2)cc1OC` [Example 196, 4,5-Dimethoxy-2-(3,5-dimethyl-isoxazole-4-sulfonylamino)-N-(4-(N-methyl-N-(pyridin-3-yl-methyl)-aminosulfonyl)-phenyl)-benzamide], the n-fold stimulation in assay [1] (concentration c 10 μM) amounted to 21.9.
In turn, `COc1cc(NS(=O)(=O)c2ccc(Cl)s2)c(C(=O)Nc2ccc(S(=O)(=O)N3CCSCC3)cc2)cc1OC` [Example 206, 4,5-Dimethoxy-2-(5-chloro-thiophene-2-sulfonylamino)-N-(4-(thiomorpholine-4-sulfonyl)-phenyl)-benzamide] came in with a n-fold stimulation in assay [1] (concentration c 50 μM) of 19.3.
The compound `Cc1noc(C)c1S(=O)(=O)Nc1ccc(Cl)cc1C(=O)Nc1ccc(S(=O)(=O)N2CCc3ccccc3C2)cc1` [Example 208, 5-Chloro-2-(3,5-dimethyl-isoxazole-4-sulfonylamino)-N-(4-(1,2,3,4-tetrahydro-isoquinoline-2-sulfonyl)-phenyl)-benzamide] had a n-fold stimulation in assay [1] (concentration c 10 μM) of 23.1.
In assay [1] (concentration c 10 μM), `Cc1noc(C)c1S(=O)(=O)Nc1ccc(Cl)cc1C(=O)Nc1ccc(S(=O)(=O)N(C)Cc2cccnc2)cc1` [Example 209, 5-Chloro-2-(3,5-dimethyl-isoxazde-4-sulfonylamino)-N-(4-(N-methyl-N-(pyridin-3-yl-methyl)-aminosulfonyl)-phenyl)-benzamide] came in with a n-fold stimulation of 28.5.
In assay [1] (concentration c 10 μM), `Cc1noc(C)c1S(=O)(=O)Nc1ccc(Cl)cc1C(=O)Nc1ccc(S(=O)(=O)N2C[C@@H](C)O[C@@H](C)C2)cc1` [Example 222, 5-Chloro-2-(3,5-dimethyl-isoxazole-4-sulfonylamino)-N-(4-(cis-2,6-dimethyl-morpholine-4-sulfonyl)-phenyl)-benzamide] yielded a n-fold stimulation of 29.5.
As for `Cc1noc(C)c1S(=O)(=O)Nc1ccc(Cl)cc1C(=O)Nc1ccc(S(=O)(=O)N2CC(C)CC(C)C2)cc1` (stereo not drawn) [Example 223, 5-Chloro-2-(3,5-dimethyl-isoxazole-4-sulfonylamino)-N-(4-(3,5-dimethylpiperidine-1-sulfonyl)-phenyl)-benzamide], the n-fold stimulation in assay [1] (concentration c 10 μM) amounted to 27.1.
Turning to `Cc1noc(C)c1S(=O)(=O)Nc1ccc(Cl)cc1C(=O)Nc1ccc(S(=O)(=O)N2CCOCC2)cc1` [Example 224, 5-Chloro-2-(3,5-dimethyl-isoxazole-4-sulfonylamino)-N-(4-(morpholine-4-sulfonyl)-phenyl)-benzamide], the n-fold stimulation in assay [1] (concentration c 50 μM) is recorded as 27.8.
Compound `O=C(Nc1ccc(S(=O)(=O)c2ccccc2)cc1)c1cc(Cl)ccc1NS(=O)(=O)c1ccc(Cl)s1` [Example 225] had a n-fold stimulation in assay [1] (concentration c 10 μM) of 13.4.
The compound `C[C@@H]1CN(S(=O)(=O)c2ccc(NC(=O)c3ccc(Cl)cc3NS(=O)(=O)c3ccc(Cl)cc3)cc2)C[C@H](C)O1` [Example 226, 4-Chloro-2-(4-chloro-phenylsulfonylamino)-N-(4-(cis-2,6-dimethyl-morpholine-4-sulfonyl)-phenyl)-benzamide] came in with a n-fold stimulation in assay [1] (concentration c 25 μM) of 3.3.
